Laboratory results: the supplement of paper PMC8612539
Converted amounts (≈) assume the structure as drawn.

Test system: Mannheimia haemolytica
Assay: minimum inhibitory concentration (MIC)
Protocol: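 Broth microdilution MIC (Sensititre BOPO7F bovine plate, CLSI methods) of 19 antimicrobials against field isolates of P. multocida, M. haemolytica, H. somni (deep nasopharyngeal swabs) and E. coli, Enterococcus spp. (rectal swabs) from weaned dairy heifers. Incubation 16-24 h at 35 C. MIC is the lowest concentration preventing visible growth. Values with <= or > lie at the tested range limits. Trimethoprim-sulfamethoxazole is given as the trimethoprim component of a 1:19 mixture.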

CC1(C)S[C@@H]2[C@H](NC(=O)[C@H](N)c3ccccc3)C(=O)N2[C@H]1C(=O)O [Ampicillin]
Conditions | minimum inhibitory concentration [µg/mL]
isolate (source animal id): 8 | ≤ 0.25
isolate (source animal id): 13 | ≤ 0.25
isolate (source animal id): 18 | ≤ 0.25
isolate (source animal id): 21 | ≤ 0.25
isolate (source animal id): 25 | ≤ 0.25
isolate (source animal id): 27 | ≤ 0.25
isolate (source animal id): 28 | > 16
isolate (source animal id): 30 | ≤ 0.25
isolate (source animal id): 31 | > 16
isolate (source animal id): 32 | ≤ 0.25
isolate (source animal id): 34 | ≤ 0.25
isolate (source animal id): 36 | ≤ 0.25
isolate (source animal id): 37 | ≤ 0.25
isolate (source animal id): 40 | ≤ 0.25
isolate (source animal id): 41 | ≤ 0.25
isolate (source animal id): 43 | ≤ 0.25
isolate (source animal id): 46 | ≤ 0.25
isolate (source animal id): 49 | ≤ 0.25
isolate (source animal id): 50 | > 16
isolate (source animal id): 51 | ≤ 0.25
isolate (source animal id): 52 | ≤ 0.25
isolate (source animal id): 53 | ≤ 0.25
isolate (source animal id): 55 | ≤ 0.25
isolate (source animal id): 56 | ≤ 0.25
isolate (source animal id): 57 | ≤ 0.25
isolate (source animal id): 100 | ≤ 0.25
isolate (source animal id): 103 | ≤ 0.25
isolate (source animal id): 107 | ≤ 0.25
isolate (source animal id): 108 | ≤ 0.25
isolate (source animal id): 112 | ≤ 0.25
isolate (source animal id): 113 | ≤ 0.25
isolate (source animal id): 121 | > 16
isolate (source animal id): 122 | ≤ 0.25
isolate (source animal id): 123 | 0.5 (≈ 1.43 µM)
isolate (source animal id): 126 | > 16
isolate (source animal id): 133 | ≤ 0.25
isolate (source animal id): 135 | ≤ 0.25
isolate (source animal id): 138 | > 16
isolate (source animal id): 141 | ≤ 0.25
isolate (source animal id): 142 | ≤ 0.25
isolate (source animal id): 145 | ≤ 0.25
isolate (source animal id): 149 | ≤ 0.25
isolate (source animal id): 151 | ≤ 0.25
isolate (source animal id): 152 | ≤ 0.25
isolate (source animal id): 154 | ≤ 0.25
isolate (source animal id): 159 | 16 (≈ 45.8 µM)
isolate (source animal id): 162 | 8 (≈ 22.9 µM)
isolate (source animal id): 170 | > 16
isolate (source animal id): 171 | ≤ 0.25
isolate (source animal id): 172 | > 16
isolate (source animal id): 173 | > 16
isolate (source animal id): 179 | > 16
isolate (source animal id): 180 | > 16
isolate (source animal id): 183 | > 16
isolate (source animal id): 186 | > 16
isolate (source animal id): 187 | > 16
isolate (source animal id): 188 | > 16
isolate (source animal id): 190 | ≤ 0.25
isolate (source animal id): 191 | > 16
isolate (source animal id): 192 | ≤ 0.25
isolate (source animal id): 201 | > 16
isolate (source animal id): 202 | > 16
isolate (source animal id): 209 | > 16
isolate (source animal id): 211 | > 16
isolate (source animal id): 220 | > 16
isolate (source animal id): 221 | 16 (≈ 45.8 µM)
isolate (source animal id): 223 | > 16
isolate (source animal id): 233 | > 16
isolate (source animal id): 237 | ≤ 0.25
isolate (source animal id): 241 | > 16
isolate (source animal id): 252 | ≤ 0.25
isolate (source animal id): 253 | ≤ 0.25
isolate (source animal id): 259 | 16 (≈ 45.8 µM)
isolate (source animal id): 260 | ≤ 0.25
isolate (source animal id): 262 | > 16
isolate (source animal id): 282 | > 16
isolate (source animal id): 287 | ≤ 0.25
isolate (source animal id): 288 | ≤ 0.25
isolate (source animal id): 291 | ≤ 0.25
isolate (source animal id): 293 | ≤ 0.25
isolate (source animal id): 298 | ≤ 0.25
isolate (source animal id): 299 | ≤ 0.25
isolate (source animal id): 300 | ≤ 0.25
isolate (source animal id): 302 | ≤ 0.25
isolate (source animal id): 304 | ≤ 0.25
isolate (source animal id): 306 | ≤ 0.25
isolate (source animal id): 308 | ≤ 0.25
isolate (source animal id): 309 | ≤ 0.25
isolate (source animal id): 313 | ≤ 0.25
isolate (source animal id): 318 | ≤ 0.25
isolate (source animal id): 320 | ≤ 0.25
isolate (source animal id): 321 | ≤ 0.25
isolate (source animal id): 323 | ≤ 0.25
isolate (source animal id): 324 | ≤ 0.25
isolate (source animal id): 326 | ≤ 0.25
isolate (source animal id): 328 | ≤ 0.25
isolate (source animal id): 329 | ≤ 0.25
isolate (source animal id): 333 | ≤ 0.25
isolate (source animal id): 335 | ≤ 0.25
isolate (source animal id): 338 | ≤ 0.25
